Results: patent US9993494B2, “Compositions and methods for treating fibrotic disease” (eFFECTOR Therapeutics, Inc., priority 2014, dated 2018)

System: normal human lung fibroblasts
Test: Ribosomal profiling: translational efficiency in TGFβ-treated fibroblasts
Assay type: cell-based
Procedure, shortened: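 Cells lysed on ice after a cold PBS wash containing cycloheximide. Ribosome-protected fragments and total mRNA were prepared with the ARTseq kit and sequenced by RNA-Seq. Reads were trimmed, mapped to the human genome and counted uniquely over coding regions per gene, with low-count genes excluded before differential translational-efficiency analysis.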

TGFβ
Log2 TE RPS8 (ENSG00000142937, 5 replicates): 1.611 | Log2 TE ACTA1 (ENSG00000143632, 5 replicates): −2.018 | change in translational profile of ACTA1 caused by TGFβ (ENSG00000143632, Control vs. TGFβ): A (A = <−2.5) | Log2 TE PLEKHA6 (ENSG00000143850, 5 replicates): −2.069 | change in translational profile of PLEKHA6 caused by TGFβ (ENSG00000143850, Control vs. TGFβ): B (B = <−1.5 to −2.5) | Log2 TE RPS27A (ENSG00000143947, 5 replicates): 1.275 | Log2 TE AFF3 (ENSG00000144218, 5 replicates): 1.146 | Log2 TE RPL32 (ENSG00000144713, 5 replicates): 1.916 | change in translational profile of RPL32 caused by TGFβ (ENSG00000144713, Control vs. TGFβ): E (E = <1.5 to 2.5) | Log2 TE NICN1 (ENSG00000145029, 5 replicates): 1.403 | Log2 TE RPS3A (ENSG00000145425, 5 replicates): 1.661 | Log2 TE RPL37 (ENSG00000145592, 5 replicates): 1.808 | change in translational profile of RPL37 caused by TGFβ (ENSG00000145592, Control vs. TGFβ): E (E = <1.5 to 2.5) | Log2 TE BTF3 (ENSG00000145741, 5 replicates): 1.13 | change in translational profile of BTF3 caused by TGFβ (ENSG00000145741, Control vs. TGFβ): D (D = <1.0 to 1.5) | Log2 TE HIGD2A (ENSG00000146066, 5 replicates): 1.196 | change in translational profile of HIGD2A caused by TGFβ (ENSG00000146066, Control vs. TGFβ): D (D = <1.0 to 1.5) | Log2 TE SLC2A12 (ENSG00000146411, 5 replicates): −1.9708 | change in translational profile of CREB5 caused by TGFβ (ENSG00000146592, Control vs. TGFβ): D (D = <1.0 to 1.5) | Log2 TE ZNF92 (ENSG00000146757, 5 replicates): −1.238 | Log2 TE DENND2A (ENSG00000146966, 5 replicates): −1.156 | change in translational profile of DENND2A caused by TGFβ (ENSG00000146966, Control vs. TGFβ): C (C = <−1.0 to −1.5) | Log2 TE RPL10 (ENSG00000147403, 5 replicates): 1.691 | change in translational profile of RPL10 caused by TGFβ (ENSG00000147403, Control vs. TGFβ): E (E = <1.5 to 2.5) | Log2 TE EIF3H (ENSG00000147677, 5 replicates): 1.329 | change in translational profile of EIF3H caused by TGFβ (ENSG00000147677, Control vs. TGFβ): E (E = <1.5 to 2.5) | Log2 TE SHC3 (ENSG00000148082, 5 replicates): −1.541 | Log2 TE RPL7A (ENSG00000148303, 5 replicates): 1.65 | change in translational profile of RPL7A caused by TGFβ (ENSG00000148303, Control vs. TGFβ): E (E = <1.5 to 2.5) | change in translational profile of EIF3M caused by TGFβ (ENSG00000149100, Control vs. TGFβ): D (D = <1.0 to 1.5) | Log2 TE RPS3 (ENSG00000149273, 5 replicates): 1.518 | change in translational profile of JPH2 caused by TGFβ (ENSG00000149596, Control vs. TGFβ): F (F = >2.5) | change in translational profile of FAU caused by TGFβ (ENSG00000149806, Control vs. TGFβ): D (D = <1.0 to 1.5) | Log2 TE CCDC102B (ENSG00000150636, 5 replicates): −2.977 | change in translational profile of CCDC102B caused by TGFβ (ENSG00000150636, Control vs. TGFβ): A (A = <−2.5) | change in translational profile of FRMD4A caused by TGFβ (ENSG00000151474, Control vs. TGFβ): C (C = <−1.0 to −1.5) | Log2 TE CCDC122 (ENSG00000151773, 5 replicates): −1.004 | Log2 TE TMEM178 (ENSG00000152154, 5 replicates): 2.016 | Log2 TE HOMER1 (ENSG00000152413, 5 replicates): 1.003 | change in translational profile of HOMER1 caused by TGFβ (ENSG00000152413, Control vs. TGFβ): D (D = <1.0 to 1.5) | Log2 TE PLEKHH2 (ENSG00000152527, 5 replicates): −1.389 | change in translational profile of PLEKHH2 caused by TGFβ (ENSG00000152527, Control vs. TGFβ): B (B = <−1.5 to −2.5) | Log2 TE UTRN (ENSG00000152818, 5 replicates): −1.085 | Log2 TE PTPRD (ENSG00000153707, 5 replicates): −1.186 | change in translational profile of ANKH caused by TGFβ (ENSG00000154122, Control vs. TGFβ): D (D = <1.0 to 1.5) | Log2 TE ABCA6 (ENSG00000154262, 5 replicates): −2.167 | change in translational profile of ABCA6 caused by TGFβ (ENSG00000154262, Control vs. TGFβ): A (A = <−2.5) | change in translational profile of OBSCN caused by TGFβ (ENSG00000154358, Control vs. TGFβ): B (B = <−1.5 to −2.5) | Log2 TE NCAM2 (ENSG00000154654, 5 replicates): −1.135 | change in translational profile of ADAMTS5 caused by TGFβ (ENSG00000154736, Control vs. TGFβ): C (C = <−1.0 to −1.5) | change in translational profile of OXA1L caused by TGFβ (ENSG00000155463, Control vs. TGFβ): D (D = <1.0 to 1.5) | Log2 TE C9orf85 (ENSG00000155621, 5 replicates): 1.112 | change in translational profile of C9orf85 caused by TGFβ (ENSG00000155621, Control vs. TGFβ): D (D = <1.0 to 1.5) | Log2 TE FMN2 (ENSG00000155816, 5 replicates): −1.246 | Log2 TE CLIC2 (ENSG00000155962, 5 replicates): −2.392 | Log2 TE UQCRB (ENSG00000156467, 5 replicates): 1.048 | Log2 TE RPL30 (ENSG00000156482, 5 replicates): 1.622 | change in translational profile of RPL30 caused by TGFβ (ENSG00000156482, Control vs. TGFβ): E (E = <1.5 to 2.5)
